Laboratory results from patent US20120157434A1, “Antimicrobial heterocyclic compounds for treatment of bacterial infections” (CSO of MicuRx Pharmaceuticals, Inc., priority 2007, published 2012).
In brackets after ≈: the same amount, converted by molar mass. Like-named read-outs stand apart in the source and are kept apart here.

Key:
[1] = biological target: T1, Human monoamine oxidase (MOA) A type enzyme (Homo sapiens, UniProt P21397); test: MAO A inhibition, MAO-Glo assay kit (Promega); format: biochemical; conditions: luminogenic substrate; for IC50: read-out: MAO-I IC50, μg/mL (converted)
T1 sequence (P21397 1-527): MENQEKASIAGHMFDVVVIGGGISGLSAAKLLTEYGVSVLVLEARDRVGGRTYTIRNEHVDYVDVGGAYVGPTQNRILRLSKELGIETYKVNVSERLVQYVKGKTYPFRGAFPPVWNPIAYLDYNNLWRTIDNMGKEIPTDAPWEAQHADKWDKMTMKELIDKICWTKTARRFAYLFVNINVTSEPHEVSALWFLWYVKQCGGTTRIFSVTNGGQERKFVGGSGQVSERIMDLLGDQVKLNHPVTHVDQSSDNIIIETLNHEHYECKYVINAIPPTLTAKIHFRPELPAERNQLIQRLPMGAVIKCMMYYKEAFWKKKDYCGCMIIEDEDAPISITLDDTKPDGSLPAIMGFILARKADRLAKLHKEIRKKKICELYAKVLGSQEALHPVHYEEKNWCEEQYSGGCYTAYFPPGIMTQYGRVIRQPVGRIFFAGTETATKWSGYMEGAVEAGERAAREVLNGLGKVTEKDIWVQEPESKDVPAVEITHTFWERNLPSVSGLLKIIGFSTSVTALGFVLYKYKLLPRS
Protocol: Human monoamine oxidase (MOA) A type enzyme inhibition activity for select compounds was measured using a commercial MAO assay kit MAO-Glo™ from Promega Co. (USA). The assay was performed as described in the company's technical bulletin MAOGlo™ Assay”. The protocol involves an incubation of the MAO A enzyme with a luminogenic MAO substrate to produce an enzymatic product which is converted to luciferin by a coupled reaction. The released luciferin undergoes further transformation to generate light that is detected and measured. The amount of the light is directly proportional to the activity of MAO. Percent inhibition at several concentrations is established relative to the uninhibited control rate, and the IC50 values are calculated. […] The MAO inhibition data for select compound of this invention are illustrated in the Table 1.

[2] = test system: methicillin-resistant Staphylococcus aureus (MRSA); test: MIC by agar dilution against a clinical isolate of MRSA; format: cell-based
From the text: The in vitro activity of compounds of the subject invention may be assessed by standard testing procedures such as the determination of minimum inhibitory concentration (MIC) by agar dilution as described in “Approved Standard. Methods for Dilution Antimicrobial Susceptibility Tests for Bacteria that Grow Aerobically,” 3rd ed., published 1993 by the National Committee for Clinical Laboratory standards, Villanova, Pa., USA.
The in vitro MICs of test compounds may be determined by a standard agar dilution method. A stock drug solution of each analog is prepared in a preferred solvent, usually DMSO:H2O (1:3). Serial 2-fold dilutions of each sample are made using 1.0 ml aliquots of sterile distilled water. To each 1.0 ml aliquot of drug is added 9 ml of molten Mueller Hinton agar medium. The drug-supplemented agar is mixed, poured into 15×100 mm petri dishes, and allowed to solidify and dry prior to inoculation.
Vials of each of the test microorganisms are maintained frozen in the vapor phase of a liquid nitrogen freezer. Test cultures are grown overnight at 35° C. on the medium appropriate for the microorganism. Colonies are harvested with a sterile swab, and cell suspensions are prepared in Trypticase Soy broth (TSB) to equal the turbidity of a 0.5 McFarland standard. A 1:20 dilution of each suspension is made in TSB. The plates containing the drug supplemented agar are inoculated with a 0.001 ml drop of the cell suspension using a Steers replicator, yielding approximately 10^4 to 10^5 cells per spot. The plates are incubated overnight at 35° C.
Following incubation the Minimum Inhibitory Concentration (MIC μg/ml), the lowest concentration of drug that inhibits visible growth of the microorganism, is read and recorded.
Compounds of this invention can have useful activity against a variety of pathogenic microorganisms. The in vitro activity of compounds of this invention can be assessed by standard testing procedures such as the determination of minimum inhibitory concentration (MIC) by agar dilution as described in “Approved Standard. Methods for Dilution Antimicrobial Susceptibility Tests for Bacteria That Grow Aerobically”, 3rd. ed., published 1993 by the National Committee for Clinical Laboratory Standards, Villanova, Pa., USA. Minimum inhibitory concentration (MIC) refers to the lowest concentration of drug (μg/mL) that inhibits visible growth of the organism. Lower MIC values indicate a higher antibacterial activity. […] The activity of compounds of present invention against a clinical isolate of methicillin-resistant Staphylococcus aureus (MRSA; from the Massachusetts General Hospital, USA) is exemplified by the MIC data of Table 1.

[3] = Staphylococcus aureus, read-out: MRSA, MIC, μg/mL
[4] = clinical isolate of methicillin-resistant Staphylococcus aureus (Massachusetts General Hospital, USA), agar dilution, read-out: MRSA, MIC

Compound | IC50 [1] | MIC [2, 3] | MIC [2, 4] | MAO-I IC50 [1]
CC(=O)NC[C@@H]1OC(=O)N2c3ccc(-c4ccc(C(=O)Cn5ccnc5)nc4)cc3C[C@@H]12 [Example 11, N-(((1S,9aS)-7-(6-(2-(1H-imidazol-1-yl)acetyl)pyridin-3-yl)-3-oxo-1,3,9,9a-tetrahydrooxazolo[3,4-a]indol-1-yl)methyl)acetamide] | > 232 µM | 1 µg/mL (≈ 2.32 µM) | – | –
CC(=O)NC[C@@H]1OC(=O)N2c3ccc(-c4ccc(-n5cnnn5)nc4)cc3C[C@@H]12 [Example 4, N-(((1S,9aS)-7-(6-(1H-tetrazol-1-yl)pyridin-3-yl)-3-oxo-1,3,9,9a-tetrahydrooxazolo[3,4-a]indol-1-yl)methyl)acetamide] | 353 µM | – | 0.5 µg/mL (≈ 1.28 µM) | –
CC(=O)NC[C@@H]1OC(=O)N2c3ccc(-c4ccc(-c5nnn(C)n5)nc4)cc3C[C@@H]12 [Example 1, N-(((1S,9aS)-7-(6-(2-methyl-2H-tetrazol-5-yl)pyridin-3-yl)-3-oxo-1,3,9,9a-tetrahydrooxazolo[3,4-a]indol-1-yl)methyl)acetamide] | – | 0.5 µg/mL (≈ 1.23 µM) | – | –
CC(=O)NC[C@@H]1OC(=O)N2c3ccc(-c4ccc([C@@]5(C#N)[C@@H]6CNC[C@@H]65)nc4)cc3C[C@@H]12 [Example 18, N-(((1S,9aS)-7-(6-((1R,5S,6s)-6-cyano-3-azabicyclo[3.1.0]hexan-6-yl)pyridin-3-yl)-3-oxo-1,3,9,9a-tetrahydrooxazolo[3,4-a]indol-1-yl)methyl)acetamide] | > 233 µM | – | 0.5 µg/mL (≈ 1.16 µM) | –
CC(=O)NC[C@@H]1OC(=O)N2c3ccc(N4Cc5cccnc5C4)cc3C[C@@H]12 [Example 6, N-(((1S,9aS)-3-oxo-7-(5H-pyrrolo[3,4-b]pyridin-6(7H)-yl)-1,3,9,9a-tetrahydrooxazolo[3,4-a]indol-1-yl)methyl)acetamide] | – | – | 0.5 µg/mL (≈ 1.37 µM) | –
CC(=O)NC[C@@H]1OC(=O)N2c3ccc(-c4ccc(N5CCOC5=O)nc4)cc3C[C@@H]12 [Example 3, N-(((1S,9aS)-3-oxo-7-(6-(2-oxooxazolidin-3-yl)pyridin-3-yl)-1,3,9,9a-tetrahydrooxazolo[3,4-a]indol-1-yl)methyl)acetamide] | – | 0.25 µg/mL (≈ 0.612 µM) | – | –
CC(=O)NC[C@@H]1OC(=O)N2c3ccc(-c4ccc(-c5nnnn5C)nc4)cc3C[C@@H]12 [Example 2, N-(((1S,9aS)-7-(6-(1-methyl-1H-tetrazol-5-yl)pyridin-3-yl)-3-oxo-1,3,9,9a-tetrahydrooxazolo[3,4-a]indol-1-yl)methyl)acetamide] | – | – | 0.5 µg/mL (≈ 1.23 µM) | –
CC(=O)NC[C@@H]1OC(=O)N2c3ccc(-c4ccc(C5=NOC(CO)C5)nc4)cc3C[C@@H]12 (stereo partly drawn) [Example 8, N-(((1S,9aS)-7-(6-(5-(hydroxymethyl)-4,5-dihydroisoxazol-3-yl)pyridin-3-yl)-3-oxo-1,3,9,9a-tetrahydrooxazolo[3,4-a]indol-1-yl)methyl)acetamide] | – | 1 µg/mL (≈ 2.37 µM) | – | –
CC(=O)NC[C@H]1CN(c2ccc(N3CCOCC3)c(F)c2)C(=O)O1 [Linezolid, linezolid, reference compound] | – | – | 2 µg/mL (≈ 5.93 µM) | 5 µg/mL
